Format in all cases: cell-based
The target in one experiment is T1, Toll-like receptor 7 (Homo sapiens, UniProt Q9NYK1).
T1 sequence (Q9NYK1 whole entry): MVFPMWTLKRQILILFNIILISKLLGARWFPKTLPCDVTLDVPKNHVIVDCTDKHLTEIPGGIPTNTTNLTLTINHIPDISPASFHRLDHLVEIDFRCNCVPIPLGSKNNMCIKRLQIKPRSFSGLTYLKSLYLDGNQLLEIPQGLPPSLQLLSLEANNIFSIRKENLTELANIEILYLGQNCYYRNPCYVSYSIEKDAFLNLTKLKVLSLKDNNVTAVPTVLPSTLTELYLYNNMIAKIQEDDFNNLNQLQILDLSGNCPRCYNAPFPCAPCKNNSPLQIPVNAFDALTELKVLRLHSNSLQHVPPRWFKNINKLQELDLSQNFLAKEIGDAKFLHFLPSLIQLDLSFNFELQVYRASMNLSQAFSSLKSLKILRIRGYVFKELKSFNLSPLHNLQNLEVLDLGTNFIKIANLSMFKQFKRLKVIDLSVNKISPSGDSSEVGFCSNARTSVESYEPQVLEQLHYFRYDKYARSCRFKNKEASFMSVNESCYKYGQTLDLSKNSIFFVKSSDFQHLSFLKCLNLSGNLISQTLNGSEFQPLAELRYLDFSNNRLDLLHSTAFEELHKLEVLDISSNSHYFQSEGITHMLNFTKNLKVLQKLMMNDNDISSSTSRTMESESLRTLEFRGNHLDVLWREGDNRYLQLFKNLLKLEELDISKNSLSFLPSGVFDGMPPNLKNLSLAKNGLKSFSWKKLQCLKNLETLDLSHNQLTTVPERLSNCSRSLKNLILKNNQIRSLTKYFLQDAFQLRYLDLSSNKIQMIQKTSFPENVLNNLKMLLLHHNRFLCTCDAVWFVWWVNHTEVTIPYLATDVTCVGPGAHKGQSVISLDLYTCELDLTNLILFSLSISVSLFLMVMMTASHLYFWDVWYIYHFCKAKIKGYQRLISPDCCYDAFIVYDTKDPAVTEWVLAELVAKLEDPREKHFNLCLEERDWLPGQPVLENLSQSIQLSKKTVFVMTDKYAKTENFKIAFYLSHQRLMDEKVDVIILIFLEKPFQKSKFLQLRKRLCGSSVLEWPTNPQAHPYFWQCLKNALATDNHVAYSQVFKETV
In words: Antagonist activity at human TLR7 overexpressed in HEK-Blue cells assessed as inhibition of gardiquimod-induced NFkappaB and AP-1 activation preincubated for 30 mins followed by gardiquimod stimulation measured after 22 hrs by quanti-blue SEAP assay.

The target of a further experiment is T2, Toll-like receptor 9 (Homo sapiens, UniProt Q9NR96).
T2 sequence (Q9NR96 whole entry): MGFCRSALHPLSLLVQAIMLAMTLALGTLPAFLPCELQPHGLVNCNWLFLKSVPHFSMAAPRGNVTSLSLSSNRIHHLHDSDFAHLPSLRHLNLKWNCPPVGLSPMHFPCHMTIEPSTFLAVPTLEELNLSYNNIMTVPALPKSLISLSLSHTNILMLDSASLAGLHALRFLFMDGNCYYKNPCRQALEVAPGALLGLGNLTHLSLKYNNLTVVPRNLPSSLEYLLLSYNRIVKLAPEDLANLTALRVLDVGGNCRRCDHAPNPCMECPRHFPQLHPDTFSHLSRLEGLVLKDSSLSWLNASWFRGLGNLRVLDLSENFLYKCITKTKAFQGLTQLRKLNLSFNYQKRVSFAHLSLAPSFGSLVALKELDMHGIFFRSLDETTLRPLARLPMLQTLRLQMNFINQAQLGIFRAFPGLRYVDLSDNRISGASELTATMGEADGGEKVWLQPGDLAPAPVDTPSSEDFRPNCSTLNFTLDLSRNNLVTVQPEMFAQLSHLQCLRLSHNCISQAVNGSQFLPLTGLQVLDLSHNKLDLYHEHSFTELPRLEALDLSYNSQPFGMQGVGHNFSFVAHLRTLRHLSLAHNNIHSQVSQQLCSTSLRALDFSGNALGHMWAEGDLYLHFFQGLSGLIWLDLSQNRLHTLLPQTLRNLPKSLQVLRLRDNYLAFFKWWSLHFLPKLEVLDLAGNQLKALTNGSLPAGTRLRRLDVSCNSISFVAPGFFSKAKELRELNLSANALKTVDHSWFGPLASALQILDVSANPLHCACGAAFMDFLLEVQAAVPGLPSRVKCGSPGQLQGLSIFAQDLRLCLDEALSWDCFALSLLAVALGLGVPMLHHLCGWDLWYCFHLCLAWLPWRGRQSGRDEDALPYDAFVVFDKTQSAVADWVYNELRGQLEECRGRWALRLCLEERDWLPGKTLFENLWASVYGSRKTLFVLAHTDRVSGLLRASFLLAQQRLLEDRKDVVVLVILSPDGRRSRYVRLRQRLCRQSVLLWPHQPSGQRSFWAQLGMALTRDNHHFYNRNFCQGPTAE
In words: Antagonist activity at human TLR9 overexpressed in HEK-Blue cells assessed as inhibition of ODN2006-induced NFkappaB and AP-1 activation preincubated for 30 mins followed by ODN2006 stimulation measured after 22 hrs by quanti-blue SEAP assay.

For experiment [1], the target named is T3, Toll-like receptor 9 (Homo sapiens) (UniProt Q9NR96).
T3 sequence (whole entry): T2 sequence (Q9NR96 whole entry)
Description: Antagonist activity at human TLR9 overexpressed in HEK-Blue cells assessed as inhibition of ODN2006-induced NFkappaB and AP-1 activation at 10 uM preincubated for 30 mins followed by ODN2006 stimulation measured after 22 hrs by quanti-blue SEAP assay relative to control.

The next experiment concerns the target T4, Toll-like receptor 3 (Homo sapiens, UniProt O15455).
T4 sequence (O15455 whole entry): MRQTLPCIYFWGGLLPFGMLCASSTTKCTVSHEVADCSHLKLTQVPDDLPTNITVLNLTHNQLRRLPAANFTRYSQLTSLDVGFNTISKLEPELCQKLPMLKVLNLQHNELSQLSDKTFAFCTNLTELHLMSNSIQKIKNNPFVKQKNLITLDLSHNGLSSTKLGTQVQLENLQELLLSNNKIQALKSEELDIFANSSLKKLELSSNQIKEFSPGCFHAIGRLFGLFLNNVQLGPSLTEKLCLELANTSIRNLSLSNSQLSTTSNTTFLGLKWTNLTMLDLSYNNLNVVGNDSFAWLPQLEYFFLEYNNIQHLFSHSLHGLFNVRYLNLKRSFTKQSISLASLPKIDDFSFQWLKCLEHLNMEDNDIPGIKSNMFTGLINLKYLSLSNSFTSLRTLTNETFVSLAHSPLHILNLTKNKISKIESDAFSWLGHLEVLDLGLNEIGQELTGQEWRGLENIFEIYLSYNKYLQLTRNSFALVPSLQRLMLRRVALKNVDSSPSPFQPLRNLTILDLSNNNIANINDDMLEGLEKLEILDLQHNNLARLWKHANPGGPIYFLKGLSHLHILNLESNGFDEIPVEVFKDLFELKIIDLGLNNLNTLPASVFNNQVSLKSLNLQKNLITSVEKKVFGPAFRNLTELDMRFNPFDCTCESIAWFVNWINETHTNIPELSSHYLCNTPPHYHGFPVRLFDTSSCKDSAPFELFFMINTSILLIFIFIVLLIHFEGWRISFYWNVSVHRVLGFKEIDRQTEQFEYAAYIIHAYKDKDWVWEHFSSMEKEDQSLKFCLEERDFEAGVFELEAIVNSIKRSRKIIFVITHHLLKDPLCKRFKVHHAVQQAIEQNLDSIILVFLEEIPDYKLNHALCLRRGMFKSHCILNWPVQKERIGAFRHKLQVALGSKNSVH
In words: Antagonist activity at human TLR3 overexpressed in HEK-Blue cells assessed as inhibition of Poly IC-induced NFkappaB and AP-1 activation preincubated for 30 mins followed by Poly IC stimulation measured after 22 hrs by quanti-blue SEAP assay.

The next experiment concerns the target Toll-like receptor 4 (Homo sapiens, UniProt O00206). In words: Antagonist activity at human TLR4 overexpressed in HEK-Blue cells assessed as inhibition of […] induced NFkappaB and AP-1 activation preincubated for 30 mins followed by […] stimulation measured after 22 hrs by quanti-blue SEAP assay.

Sequence of Toll-like receptor 4 (O00206 whole entry): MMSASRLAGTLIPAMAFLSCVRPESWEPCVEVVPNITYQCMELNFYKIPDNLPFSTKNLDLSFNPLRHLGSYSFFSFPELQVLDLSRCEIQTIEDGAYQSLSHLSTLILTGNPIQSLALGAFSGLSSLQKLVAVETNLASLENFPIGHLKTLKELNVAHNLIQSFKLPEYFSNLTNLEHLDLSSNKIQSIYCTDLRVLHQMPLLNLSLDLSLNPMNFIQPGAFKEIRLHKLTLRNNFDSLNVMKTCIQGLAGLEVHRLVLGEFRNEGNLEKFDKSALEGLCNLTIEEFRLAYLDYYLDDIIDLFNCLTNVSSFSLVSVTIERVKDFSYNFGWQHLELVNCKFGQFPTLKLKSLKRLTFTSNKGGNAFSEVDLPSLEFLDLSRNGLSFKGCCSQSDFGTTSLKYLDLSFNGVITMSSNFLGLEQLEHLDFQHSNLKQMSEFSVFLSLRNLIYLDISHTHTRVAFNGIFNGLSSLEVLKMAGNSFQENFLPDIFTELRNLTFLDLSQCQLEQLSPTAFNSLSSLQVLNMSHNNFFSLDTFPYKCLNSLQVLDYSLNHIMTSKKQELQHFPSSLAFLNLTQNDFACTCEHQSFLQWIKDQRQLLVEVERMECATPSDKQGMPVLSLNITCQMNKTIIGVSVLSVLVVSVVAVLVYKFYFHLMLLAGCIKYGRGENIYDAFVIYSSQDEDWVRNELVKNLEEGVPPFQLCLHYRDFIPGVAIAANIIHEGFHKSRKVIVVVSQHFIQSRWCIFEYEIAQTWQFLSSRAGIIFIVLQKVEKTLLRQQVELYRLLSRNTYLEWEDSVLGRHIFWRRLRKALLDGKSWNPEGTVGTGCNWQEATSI

With `COc1ccc(-c2[nH]c3ccc(C4CCN(CC5CCCCN5C)CC4)cc3c2C)cc1OC` (stereo not given), the IC50 at Toll-like receptor 7 turned out to be 0.85 µM; at Toll-like receptor 9, 0.74 µM.

Consider `COc1ccc(-c2[nH]c3ccc(C4CCN(Cc5cncn5C)CC4)cc3c2C)cc1OC`, for which the IC50 on Toll-like receptor 7 turned out to be 0.92 µM; at Toll-like receptor 9, 2.71 µM.

In the case of `CCc1c(-c2ccc(OC)c(OC)c2)[nH]c2ccc(C3CCN(CCNC)CC3)cc12`, the IC50 on Toll-like receptor 7 amounted to 0.13 µM.

Regarding `CNCCN1CCC(c2ccc3[nH]c(-c4cccc(C)c4)c(C)c3c2)CC1`, the half-maximal inhibitory concentration (IC50) on Toll-like receptor 7 was over 10 µM; on Toll-like receptor 9 it was 2.62 µM.

For the molecule `COc1ccc(-c2[nH]c3ccc(C4CCN(C5CCN(C)CC5)CC4)cc3c2C)cc1OC`, the IC50 at Toll-like receptor 7 was determined as 0.73 µM.

Turning to `CNCCN1CCC(c2ccc3[nH]c(-c4ccc(C#N)cc4)c(C)c3c2)CC1`, the IC50 on Toll-like receptor 9 stood at 0.52 µM.

For `CNCCN1CCC(c2ccc3[nH]c(-c4ccccc4OC)c(F)c3c2)CC1`, the half-inhibitory concentration (IC50) on Toll-like receptor 7 came out at 0.61 µM; at Toll-like receptor 9, 23.3 µM. Moreover, in experiment [1], the inhibition was under 5%.

On to `CNCCN1CCC(c2ccc3[nH]c(-c4ccccc4C#N)c(C)c3c2)CC1`, for which the IC50 at Toll-like receptor 7 is over 10 µM; at Toll-like receptor 9, 0.6 µM.

With `CNCCN1CCC(c2ccc3[nH]c(-c4ccc(OC)c(OC)c4)c(Cl)c3c2)CC1`, the IC50 at Toll-like receptor 9 is 0.43 µM.

Turning to `CNCCCN1CCC(c2ccc3[nH]c(-c4ccc(OC)c(OC)c4)c(C)c3c2)CC1`, the IC50 is 0.79 µM at Toll-like receptor 7 and 0.55 µM at Toll-like receptor 9.

For `CNCCN1CCC(c2ccc3[nH]c(-c4ccccc4Cl)c(F)c3c2)CC1`, the IC50 on Toll-like receptor 9 was found to be 21.7 µM.

With `COc1ccc(-c2[nH]c3ccc(C4CCN(Cc5ccncc5)CC4)cc3c2C)cc1OC`, at Toll-like receptor 9, the IC50 amounted to 3.36 µM.

On to `COc1ccc(-c2[nH]c3ccc(C4CCN(Cc5cnc(C)[nH]5)CC4)cc3c2C)cc1OC`, for which the IC50 on Toll-like receptor 7 was 3.49 µM.

For the molecule `CNCCN1CCC(c2ccc3[nH]c(-c4ccc(OC)c(OC)c4)c(C#N)c3c2)CC1`, the IC50 at Toll-like receptor 7 is over 10 µM.

For `CNCCN1CCC(c2ccc3[nH]c(-c4ccc(C)cc4)c(C)c3c2)CC1`, the IC50 at Toll-like receptor 7 is over 10 µM; at Toll-like receptor 9, 5.39 µM.

As to `CNCCN1CCC(c2ccc3[nH]c(-c4ccc(OC)cc4)c(C)c3c2)CC1`, the figures for the IC50 at Toll-like receptor 7 and on Toll-like receptor 9 were 5.46 µM and 0.5 µM, respectively.

Consider `CNCCN1CCC(c2ccc3[nH]c(-c4ccccc4)c(C)c3c2)CC1`, for which the IC50 on Toll-like receptor 7 is over 10 µM; at Toll-like receptor 9 it was 1.8 µM.

Take `COc1ccc(-c2[nH]c3ccc(C4CCN(C5CNC5)CC4)cc3c2C)cc1OC`: on Toll-like receptor 9, the half-maximal inhibitory concentration (IC50) came to 2.34 µM.

For `CNCCN1CCC(c2ccc3[nH]c(-c4cccc(OC)c4)c(C)c3c2)CC1`, the IC50 at Toll-like receptor 7 was determined as 6.17 µM; on Toll-like receptor 9, 1.87 µM.

For the molecule `CNCCN1CCC(c2ccc3[nH]c(-c4cccc(C#N)c4)c(C)c3c2)CC1`, the IC50 was over 10 µM on Toll-like receptor 7 and 0.46 µM on Toll-like receptor 9.

Consider `CNCCN1CCC(c2ccc3[nH]c(-c4ccc(OC)c(OC)c4)c(CC(F)(F)F)c3c2)CC1`, for which the IC50 at Toll-like receptor 7 worked out at 0.07 µM; at Toll-like receptor 9 it was 0.75 µM.

With `COc1ccc(-c2[nH]c3ccc(C4CCN(Cc5nccn5C)CC4)cc3c2C)cc1OC`, the IC50 at Toll-like receptor 9 came to 0.85 µM.

For the molecule `CNCCN1CCC(c2ccc3[nH]c(-c4ccc(C(N)=O)cc4)c(C)c3c2)CC1`, the IC50 was 16.6 µM at Toll-like receptor 7 and 0.27 µM on Toll-like receptor 9.

In the case of `CNCCN1CCC(c2ccc3[nH]c(-c4ccc5c(c4)OCO5)c(C)c3c2)CC1`, the IC50 on Toll-like receptor 7 is 0.65 µM; on Toll-like receptor 9, 1.2 µM.

Regarding `CNCCN1CCC(c2ccc3[nH]c(-c4cccc(OC)c4OC)c(C)c3c2)CC1`, the results for the IC50 at Toll-like receptor 7 and on Toll-like receptor 9 were over 10 µM and 2.2 µM, respectively.

Regarding `CNCCN1CCC(c2ccc3[nH]c(-c4ccc(OC)c(OC)c4)c(C)c3c2)CC1`, the IC50 worked out at 0.25 µM on Toll-like receptor 7, 0.43 µM on Toll-like receptor 9, 2.16 µM at Toll-like receptor 3 and 15 µM on Toll-like receptor 4.

As for `COc1ccc(-c2[nH]c3ccc(C4CCNCC4)cc3c2C)cc1OC`, the IC50 at Toll-like receptor 9 stood at 4.85 µM.

For `CNCCN1CCC(c2ccc3[nH]c(-c4ccccc4OC)c(C)c3c2)CC1`, the half-inhibitory concentration (IC50) at Toll-like receptor 7 is over 10 µM; at Toll-like receptor 9, 1.1 µM.

On to `COc1ccc(-c2[nH]c3ccc(C4CCN(C(C)=O)CC4)cc3c2C)cc1OC`, for which the IC50 was 1.31 µM on Toll-like receptor 7 and over 50 µM at Toll-like receptor 9.

In the case of `CNCCN1CCC(c2ccc3[nH]c(-c4ccc(OC)cc4OC)c(C)c3c2)CC1`, the IC50 is over 10 µM at Toll-like receptor 7 and 2.33 µM at Toll-like receptor 9.

For `CCOc1cc(-c2[nH]c3ccc(C4CCN(CCNC)CC4)cc3c2C)ccc1OC(C)C`, at Toll-like receptor 9, the IC50 is 1.66 µM.

For `CNCCN1CCC(c2ccc3[nH]c(-c4ccccc4C)c(C)c3c2)CC1`, the half-inhibitory concentration (IC50) on Toll-like receptor 7 is over 10 µM; on Toll-like receptor 9, 2.14 µM.

Broadly, the IC50 is the point on the concentration scale where inhibition reaches its midpoint. What is called inhibition is the percentage by which the read-out fell short of the control.

(Values after ChEMBL document CHEMBL4619828, “Discovery of Potent and Orally Bioavailable Small Molecule Antagonists of Toll-like Receptors 7/8/9 (TLR7/8/9)” (ACS Med Chem Lett, 2020).)
